In patent US20250382344A1, “Soluble GLP1/GIP/NPY2 Receptor Triple Agonists” (Boehringer Ingelheim International GmH, priority 2024, published 2025) one finds EC50 and solubility data, which are given here for four compounds.

Read-outs that look alike come from different tables or passages of the source.

Data set [1] addresses T1, hGLP1R (Homo sapiens, UniProt P43220).
T1 construct: expressed in transfected cells; host or cells: HEK-293 CRE-luciferase reporter cells
The data set is described as follows: hGLP1R CreLuc assay in 0.5% and 100% plasma (HEK-293 CRE-luciferase reporter cells). The class given is cell-based. The conditions noted are these: HEK-293 reporter cells. Background: Reporter assays use an easily measured gene product as a stand-in for the process of interest.

Data set [2] deals with T2, hGIPR (Homo sapiens, UniProt P48546).
T2 construct: expressed in transfected cells; host or cells: CHO CRE-luciferase reporter cells
T2 sequence (P48546 22-466): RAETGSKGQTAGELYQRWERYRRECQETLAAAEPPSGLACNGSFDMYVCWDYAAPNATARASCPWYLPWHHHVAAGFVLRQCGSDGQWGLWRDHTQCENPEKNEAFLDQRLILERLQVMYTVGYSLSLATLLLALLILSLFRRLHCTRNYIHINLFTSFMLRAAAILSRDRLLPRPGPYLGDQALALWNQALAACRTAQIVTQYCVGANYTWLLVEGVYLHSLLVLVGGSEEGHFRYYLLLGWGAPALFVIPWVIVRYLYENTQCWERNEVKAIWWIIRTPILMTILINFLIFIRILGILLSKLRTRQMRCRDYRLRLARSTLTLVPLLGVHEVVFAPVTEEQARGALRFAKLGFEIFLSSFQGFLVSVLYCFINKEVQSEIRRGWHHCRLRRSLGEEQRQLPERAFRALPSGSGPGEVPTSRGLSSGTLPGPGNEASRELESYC
The data set is described as follows: hGIPR CreLuc assay in 0.5% and 100% plasma (CHO CRE-luciferase reporter cells). The class given is cell-based. The following applies: 0.5% human plasma, read-out: hGIPR 0.5% hP.

The target in data set [3] is T3, hNPY2R (Homo sapiens, UniProt P49146).
T3 construct: expressed in transfected cells; host or cells: HEK-293 CRE-luciferase reporter cells
T3 sequence (P49146 1-381): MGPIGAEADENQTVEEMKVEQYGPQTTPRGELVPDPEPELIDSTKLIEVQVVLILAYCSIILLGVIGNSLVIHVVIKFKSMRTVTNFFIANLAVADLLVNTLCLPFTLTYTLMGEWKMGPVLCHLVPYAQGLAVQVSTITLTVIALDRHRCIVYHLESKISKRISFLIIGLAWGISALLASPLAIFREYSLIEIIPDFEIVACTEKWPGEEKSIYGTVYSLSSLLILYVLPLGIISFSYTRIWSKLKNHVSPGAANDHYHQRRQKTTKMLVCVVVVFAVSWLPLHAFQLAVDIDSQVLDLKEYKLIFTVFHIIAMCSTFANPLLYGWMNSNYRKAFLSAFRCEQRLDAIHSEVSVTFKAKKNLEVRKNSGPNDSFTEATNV
Put plainly: hNPY2R CreLuc assay in 0.5% and 100% plasma (HEK-293 CRE-luciferase reporter cells). It counts as cell-based. The following applies: HEK-293 reporter cells.

Data set [4] in a line: Solubility in 0.1 M phosphate buffer at pH 7. The class given is physicochemical. The conditions noted are these: 0.1 M phosphate buffer at pH 7, 10 mg/mL final peptide concentration, shaking 2 hours at room temperature, peptides as TFA-salts; measured sample pH 6.5-7.0.
Where [5] appears, read: 0.5% human plasma, read-out: hGLP1R 0.5% hP.
Setting [6] is: 0.5% human plasma, read-out: hNPY2R 0.5% hP.

T1 sequence (P43220 24-463): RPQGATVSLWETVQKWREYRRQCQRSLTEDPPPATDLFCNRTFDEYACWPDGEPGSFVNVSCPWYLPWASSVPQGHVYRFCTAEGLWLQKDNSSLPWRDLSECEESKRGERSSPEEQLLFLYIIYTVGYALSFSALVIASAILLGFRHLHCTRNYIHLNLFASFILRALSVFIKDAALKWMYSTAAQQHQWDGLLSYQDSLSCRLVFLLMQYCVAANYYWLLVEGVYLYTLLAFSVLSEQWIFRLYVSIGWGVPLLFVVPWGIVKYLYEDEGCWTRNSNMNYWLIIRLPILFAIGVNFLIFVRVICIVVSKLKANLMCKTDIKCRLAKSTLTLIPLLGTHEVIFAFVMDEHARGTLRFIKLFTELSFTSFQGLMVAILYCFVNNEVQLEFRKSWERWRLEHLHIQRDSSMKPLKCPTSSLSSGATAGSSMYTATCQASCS

Broadly, the solubility is the concentration that dissolves in the medium under given conditions. For `CC[C@H](C)[C@H](NC(=O)[C@H](CC(C)C)NC(=O)[C@H](Cc1c[nH]cn1)NC(=O)[C@H](CCCNC(=N)N)NC(=O)[C@@H](NC(=O)[C@H](Cc1ccccc1)NC(=O)[C@H](C)NC(=O)C(C)(C)NC(=O)[C@H](CCC(N)=O)NC(=O)[C@H](C)NC(=O)[C@H](CCC(N)=O)NC(=O)[C@H](CCCCN)NC(=O)[C@H](CC(=O)O)NC(=O)[C@H](CC(C)C)NC(=O)C(C)(C)NC(=O)[C@@H](NC(=O)[C@H](CO)NC(=O)[C@H](Cc1ccc(O)cc1)NC(=O)[C@H](CC(=O)O)NC(=O)[C@H](CO)NC(=O)[C@@H](NC(=O)[C@H](Cc1ccccc1)NC(=O)[C@@H](NC(=O)CNC(=O)[C@H](CCC(=O)O)NC(=O)C(C)(C)NC(=O)[C@@H](N)Cc1ccc(O)cc1)[C@@H](C)O)[C@@H](C)O)[C@@H](C)CC)C(C)C)C(=O)N[C@@H](CC(N)=O)C(=O)N[C@@H](CCCCNC(=O)[C@@H](N)CCCCNC(=O)CC[C@H](NC(=O)CC[C@H](NC(=O)CC[C@H](NC(=O)CC[C@H](NC(=O)CC[C@H](NC(=O)CC[C@H](NC(=O)CCCCCCCCCCCCCCCCC(=O)O)C(=O)O)C(=O)O)C(=O)O)C(=O)O)C(=O)O)C(=O)O)C(=O)NC(C)(C)C(=O)N[C@H](C(=O)N[C@@H](CCCNC(=N)N)C(=O)N[C@@H](CCC(N)=O)C(=O)N[C@@H](CCCNC(=N)N)C(=O)N[C@@H](Cc1ccc(O)cc1)C(N)=O)[C@@H](C)O` [Compound 105, Y-Aib-E-G-T-F-T-S-D-Y-S-I-Aib-L-D-K-Q-A-Q-Aib-A-F-V-R-H-L-I-N-K(1,3)-Aib-T-R-Q-R-Y-NH2.C18DA-gGlu-gGlu-gGlu-gGlu-gGlu-gGlu-eLys(1,2)], the EC50 in data set [1] (setting [5]) came to 0.3 nM; in data set [1] (100% human plasma, read-out: hGLP1R 100% hP) it was 3.4 nM; in data set [2], 0.4 nM; in data set [3] (setting [6]) it was 19.9 nM. Moreover, the solubility at 2 h in data set [4] came out at 8 mg/mL.

With `CC[C@H](C)[C@H](NC(=O)[C@H](CO)NC(=O)[C@H](Cc1ccc(O)cc1)NC(=O)[C@H](CC(=O)O)NC(=O)[C@H](CO)NC(=O)[C@@H](NC(=O)[C@H](Cc1ccccc1)NC(=O)[C@@H](NC(=O)CNC(=O)[C@H](CCC(=O)O)NC(=O)C(C)(C)NC(=O)[C@@H](N)Cc1ccc(O)cc1)[C@@H](C)O)[C@@H](C)O)C(=O)N[C@@H](CC(C)C)C(=O)N[C@@H](CC(C)C)C(=O)N[C@@H](CCC(=O)O)C(=O)N[C@@H](CCCCN)C(=O)N[C@@H](CCC(N)=O)C(=O)N[C@@H](C)C(=O)N[C@@H](CCC(N)=O)C(=O)NC(C)(C)C(=O)N[C@@H](C)C(=O)N[C@@H](Cc1ccccc1)C(=O)N[C@H](C(=O)N[C@@H](CCCNC(=N)N)C(=O)N[C@@H](Cc1c[nH]cn1)C(=O)N[C@@H](CC(C)C)C(=O)N[C@H](C(=O)N[C@@H](CC(N)=O)C(=O)N[C@@H](CCCCNC(=O)CC[C@H](NC(=O)CC[C@H](NC(=O)CC[C@H](NC(=O)CC[C@H](NC(=O)CC[C@H](NC(=O)CCCCCCCCCCCCCCCCC(=O)O)C(=O)O)C(=O)O)C(=O)O)C(=O)O)C(=O)O)C(=O)NC(C)(C)C(=O)N[C@H](C(=O)N[C@@H](CCCNC(=N)N)C(=O)N[C@@H](CCC(N)=O)C(=O)N[C@@H](CCCNC(=N)N)C(=O)N[C@@H](Cc1ccc(O)cc1)C(N)=O)[C@@H](C)O)[C@@H](C)CC)C(C)C` [Compound 122, Y-Aib-E-G-T-F-T-S-D-Y-S-I-L-L-E-K-Q-A-Q-Aib-A-F-V-R-H-L-I-N-K(1,3)-Aib-T-R-Q-R-Y-NH2.C18DA-gGlu-gGlu-gGlu-gGlu-gGlu(1,2)], the EC50 turned out to be 0.3 nM in data set [1] (setting [5]), 0.1 nM in data set [2] and 60.8 nM in data set [3] (setting [6]). In addition, in data set [4], the solubility at 2 h came to 3.8 mg/mL.

With `CC[C@H](C)[C@H](NC(=O)[C@H](CC(C)C)NC(=O)[C@H](Cc1c[nH]cn1)NC(=O)[C@H](CCCNC(=N)N)NC(=O)[C@@H](NC(=O)[C@H](Cc1ccccc1)NC(=O)[C@H](CCC(=O)O)NC(=O)C(C)(C)NC(=O)[C@H](CCC(N)=O)NC(=O)[C@H](C)NC(=O)[C@H](CCC(N)=O)NC(=O)[C@H](CCCCN)NC(=O)[C@H](CC(=O)O)NC(=O)[C@H](CC(C)C)NC(=O)C(C)(C)NC(=O)[C@@H](NC(=O)[C@H](CO)NC(=O)[C@H](Cc1ccc(O)cc1)NC(=O)[C@H](CC(=O)O)NC(=O)[C@H](CO)NC(=O)[C@@H](NC(=O)[C@H](Cc1ccccc1)NC(=O)[C@@H](NC(=O)CNC(=O)[C@H](CCC(=O)O)NC(=O)C(C)(C)NC(=O)[C@@H](N)Cc1ccc(O)cc1)[C@@H](C)O)[C@@H](C)O)[C@@H](C)CC)C(C)C)C(=O)N[C@@H](CC(N)=O)C(=O)N[C@@H](CCCCNC(=O)[C@@H](N)CCCCNC(=O)CC[C@H](NC(=O)CC[C@H](NC(=O)CC[C@H](NC(=O)CC[C@H](NC(=O)CC[C@H](NC(=O)CC[C@H](NC(=O)CCCCCCCCCCCCCCCCC(=O)O)C(=O)O)C(=O)O)C(=O)O)C(=O)O)C(=O)O)C(=O)O)C(=O)NC(C)(C)C(=O)N[C@H](C(=O)N[C@@H](CCCNC(=N)N)C(=O)N[C@@H](CCC(N)=O)C(=O)N[C@@H](CCCNC(=N)N)C(=O)N[C@@H](Cc1ccc(O)cc1)C(N)=O)[C@@H](C)O` [Compound 131, Y-Aib-E-G-T-F-T-S-D-Y-S-I-Aib-L-D-K-Q-A-Q-Aib-E-F-V-R-H-L-I-N-K(1,3)-Aib-T-R-Q-R-Y-NH2.C18DA-gGlu-gGlu-gGlu-gGlu-gGlu-gGlu-eLys(1,2)], the EC50 came to 0.1 nM in data set [1] (setting [5]), 0.3 nM in data set [2] and 17.5 nM in data set [3] (setting [6]). Further, the solubility at 2 h in data set [4] came out at 9 mg/mL.

`CC[C@H](C)[C@H](NC(=O)[C@H](CC(C)C)NC(=O)[C@H](Cc1c[nH]cn1)NC(=O)[C@H](CCCNC(=N)N)NC(=O)[C@@H](NC(=O)[C@H](Cc1ccccc1)NC(=O)[C@H](C)NC(=O)C(C)(C)NC(=O)[C@H](CCC(N)=O)NC(=O)[C@H](C)NC(=O)[C@H](CCC(N)=O)NC(=O)[C@H](CCCCN)NC(=O)[C@H](CCC(=O)O)NC(=O)[C@H](CC(C)C)NC(=O)C(C)(C)NC(=O)[C@@H](NC(=O)[C@H](CO)NC(=O)[C@H](Cc1ccc(O)cc1)NC(=O)[C@H](CC(=O)O)NC(=O)[C@H](CO)NC(=O)[C@@H](NC(=O)[C@H](Cc1ccccc1)NC(=O)[C@@H](NC(=O)CNC(=O)[C@H](CCC(=O)O)NC(=O)C(C)(C)NC(=O)[C@@H](N)Cc1ccc(O)cc1)[C@@H](C)O)[C@@H](C)O)[C@@H](C)CC)C(C)C)C(=O)N[C@@H](CC(N)=O)C(=O)N[C@@H](CCCCNC(=O)[C@@H](N)CCCCNC(=O)CC[C@H](NC(=O)CC[C@H](NC(=O)CC[C@H](NC(=O)CC[C@H](NC(=O)CC[C@H](NC(=O)CC[C@H](NC(=O)CCCCCCCCCCCCCCCCC(=O)O)C(=O)O)C(=O)O)C(=O)O)C(=O)O)C(=O)O)C(=O)O)C(=O)NC(C)(C)C(=O)N[C@H](C(=O)N[C@@H](CCCNC(=N)N)C(=O)N[C@@H](CCC(N)=O)C(=O)N[C@@H](CCCNC(=N)N)CC(=O)N[C@@H](Cc1ccc(O)cc1)C(N)=O)[C@@H](C)O` [Compound 146, Y-Aib-E-G-T-F-T-S-D-Y-S-I-Aib-L-E-K-Q-A-Q-Aib-A-F-V-R-H-L-I-N-K(1,3)-Aib-T-R-Q-bhArg-Y-NH2.C18DA-gGlu-gGlu-gGlu-gGlu-gGlu-gGlu-eLys(1,2)]: the EC50 in data set [1] (setting [5]) turned out to be 1 nM; in data set [2], 0.2 nM; in data set [3] (100% human plasma, read-out: hNPY2R 100% hP), 89.8 nM. Also, the solubility at 2 h in data set [4] was 5 mg/mL.
